According to patent US20240173298A1, “COMPOSITION FOR AMELIORATING OR SUPPRESSING DECLINE OF KIDNEY FUNCTIONS” (SUNTORY HOLDINGS LIMITED, priority 2021, published 2024):

Key:
[1] = Study on evaluation of blood renal function markers in humans (placebo-controlled, randomized, double-blind, parallel-group); format: in vivo; conditions: one capsule with 20 mg L-ergothioneine per day, oral, four weeks, week 4 minus pre-testing, versus control food group
Method: In order to evaluate the influence of supplements containing ergothioneine on blood renal function marker levels in humans, a placebo-controlled, randomized, double-blind, parallel-group study was conducted on subjects including male and female adults (46 subjects in a test food group; 46 subjects in a control food group; 92 subjects in total). In this study, one capsule containing 20 mg ergothioneine (test food) or one capsule not containing ergothioneine (control food) was fed per day for four weeks. Blood renal function marker levels of each subject were measured for pre-testing before starting the study (before starting ingestion of the test food or control food). After ingestion of the test food or control food for four weeks, blood renal function marker levels of each subject were measured again (testing on week 4). Renal function markers used for measurement were BUN, uric acid, and creatinine. […] For each subject, the BUN level measured at the time of pre-testing was subtracted from the BUN level measured at the time of testing on week 4 ((level measured at the time of testing on week 4)—(level measured at the time of pre-testing)) to determine Δ in level (the amount of change in BUN level) (mg/dL). […] For each subject, the uric acid level measured at the time of pre-testing was subtracted from the uric acid level measured at the time of testing on week 4 ((level measured at the time of testing on week 4)−(level measured at the time of pre-testing)) to determine Δ in level (the amount of change in uric acid level) (mg/dL). […] For each subject, the creatinine level measured at the time of pre-testing was subtracted from the creatinine level measured at the time of testing on week 4 ((level measured at the time of testing on week 4)−(level measured at the time of pre-testing)) to determine Δ in level (the amount of change in creatinine level) (mg/dL). […]

[2] = mice, oral administration, versus mice not administered; cited from earlier work

C[N+](C)(C)[C@@H](Cc1c[nH]c(=S)[nH]1)C(=O)[O-] [L-ergothioneine]
change in BUN level (Δ in BUN) [1]: reduced | change in blood creatinine level (Δ in creatinine) [1]: reduced | change in blood uric acid level (Δ in uric acid) [1]: reduced | peritesticular fat weight [2]: lower | triglyceride (neutral fat) level in plasma [2]: lower
